Values quoted from earlier work, collected in patent US20240164377A1, “LOW VOLATILITY PROMOTING WATER CONDITIONING ADJUVANTS” (Adjuvants Unlimited LLC, priority 2014, published 2024).

Row | SMILES | Volatility compared with another salt (in words) (background statement) | Volatility relative to the diglycolamine salt (reported, see WO 2011/019652 A2)
1 | COc1c(Cl)ccc(Cl)c1C(=O)O.NCCOCCO [diglycolamine salt of dicamba] | lower volatility than the dimethylamine salt of dicamba | –
2 | COc1c(Cl)ccc(Cl)c1C(=O)O [free acid form of dicamba, 3,6-dichloro-2-methoxybenzoic acid] | – | about 100 times
